Data published in the NIST ThermoML archive (doi:10.1016/j.jct.2018.11.004).
Where “and” joins values, the source holds several entries; their conditions need not be identical. Identical values can stand only once.

Conditions: for molar entropy: 101.33 kPa, Small (less than 1 g) adiabatic calorimetry

CC(C)[C@@H]1CC[C@@H](C)C[C@H]1O [L-menthol]
Conditions | Triple point temperature [K] | molar entropy [J/K/mol] | vapor or sublimation pressure
5 K, Crystal 1 | – | 0.2864 | –
10 K, Crystal 1 | – | 2.099 | –
15 K, Crystal 1 | – | 5.656 | –
20 K, Crystal 1 | – | 10.35 | –
25 K, Crystal 1 | – | 15.64 | –
30 K, Crystal 1 | – | 21.2 | –
35 K, Crystal 1 | – | 26.81 | –
40 K, Crystal 1 | – | 32.36 | –
45 K, Crystal 1 | – | 37.82 | –
50 K, Crystal 1 | – | 43.18 | –
55 K, Crystal 1 | – | 48.45 | –
60 K, Crystal 1 | – | 53.64 | –
65 K, Crystal 1 | – | 58.76 | –
70 K, Crystal 1 | – | 63.82 | –
75 K, Crystal 1 | – | 68.83 | –
80 K, Crystal 1 | – | 73.79 | –
85 K, Crystal 1 | – | 78.72 | –
90 K, Crystal 1 | – | 83.6 | –
95 K, Crystal 1 | – | 88.45 | –
100 K, Crystal 1 | – | 93.27 | –
105 K, Crystal 1 | – | 98.05 | –
110 K, Crystal 1 | – | 102.8 | –
115 K, Crystal 1 | – | 107.5 | –
120 K, Crystal 1 | – | 112.2 | –
125 K, Crystal 1 | – | 116.8 | –
130 K, Crystal 1 | – | 121.4 | –
135 K, Crystal 1 | – | 126 | –
140 K, Crystal 1 | – | 130.6 | –
145 K, Crystal 1 | – | 135.1 | –
150 K, Crystal 1 | – | 139.5 | –
155 K, Crystal 1 | – | 144 | –
160 K, Crystal 1 | – | 148.4 | –
165 K, Crystal 1 | – | 152.8 | –
170 K, Crystal 1 | – | 157.2 | –
175 K, Crystal 1 | – | 161.5 | –
180 K, Crystal 1 | – | 165.8 | –
185 K, Crystal 1 | – | 170.1 | –
190 K, Crystal 1 | – | 174.4 | –
195 K, Crystal 1 | – | 178.7 | –
200 K, Crystal 1 | – | 182.9 | –
205 K, Crystal 1 | – | 187.1 | –
210 K, Crystal 1 | – | 191.4 | –
215 K, Crystal 1 | – | 195.5 | –
220 K, Crystal 1 | – | 199.7 | –
225 K, Crystal 1 | – | 203.9 | –
230 K, Crystal 1 | – | 208.1 | –
235 K, Crystal 1 | – | 212.2 | –
240 K, Crystal 1 | – | 216.3 | –
245 K, Crystal 1 | – | 220.5 | –
250 K, Crystal 1 | – | 224.6 | –
255 K, Crystal 1 | – | 228.7 | –
260 K, Crystal 1 | – | 232.9 | –
265 K, Crystal 1 | – | 237 | –
270 K, Crystal 1 | – | 241.2 | –
273.64 K, Crystal 1, Closed cell (Static) method | – | – | 0.000244 kPa
273.65 K, Crystal 1, Closed cell (Static) method | – | – | 0.000244 kPa and 0.000242 kPa
275 K, Crystal 1 | – | 245.3 | –
277.38 K, Crystal 1, Closed cell (Static) method | – | – | 0.000399 kPa
277.41 K, Crystal 1, Closed cell (Static) method | – | – | 0.000401 kPa
277.5 K, Crystal 1, Closed cell (Static) method | – | – | 0.000403 kPa
278.15 K, Crystal 1, Closed cell (Static) method | – | – | 0.000441 kPa and 0.00044 kPa
278.16 K, Crystal 1, Closed cell (Static) method | – | – | 0.00044 kPa
280 K, Crystal 1 | – | 249.5 | –
282.34 K, Crystal 1, Closed cell (Static) method | – | – | 0.000758 kPa and 0.000756 kPa and 0.000759 kPa
283.15 K, Crystal 1, Closed cell (Static) method | – | – | 0.000839 kPa and 0.00084 kPa
285 K, Crystal 1 | – | 253.6 | –
286.97 K, Crystal 1, Closed cell (Static) method | – | – | 0.001352 kPa and 0.001354 kPa
286.98 K, Crystal 1, Closed cell (Static) method | – | – | 0.001355 kPa
288.15 K, Crystal 1, Closed cell (Static) method | – | – | 0.001557 kPa and 0.001559 kPa
288.16 K, Crystal 1, Closed cell (Static) method | – | – | 0.001558 kPa
290 K, Crystal 1 | – | 257.8 | –
291.56 K, Crystal 1, Closed cell (Static) method | – | – | 0.002353 kPa
291.57 K, Crystal 1, Closed cell (Static) method | – | – | 0.002354 kPa
291.6 K, Crystal 1, Closed cell (Static) method | – | – | 0.002364 kPa
293.14 K, Crystal 1, Closed cell (Static) method | – | – | 0.002829 kPa and 0.002828 kPa and 0.002831 kPa
295 K, Crystal 1 | – | 261.9 | –
296.23 K, Crystal 1, Closed cell (Static) method | – | – | 0.004057 kPa and 0.004052 kPa
296.25 K, Crystal 1, Closed cell (Static) method | – | – | 0.004063 kPa
298.15 K, Crystal 1 | – | 264.6 | –
298.15 K, Crystal 1, Closed cell (Static) method | – | – | 0.005047 kPa and 0.005039 kPa and 0.005033 kPa
300 K, Crystal 1 | – | 266.1 | –
300.84 K, Crystal 1, Closed cell (Static) method | – | – | 0.006809 kPa
300.85 K, Crystal 1, Closed cell (Static) method | – | – | 0.006831 kPa
300.86 K, Crystal 1, Closed cell (Static) method | – | – | 0.006832 kPa
303 K, Metastable liquid | – | – | 0.01038 kPa and 0.01037 kPa
303.14 K, Crystal 1, Closed cell (Static) method | – | – | 0.008771 kPa and 0.008757 kPa and 0.008761 kPa
305 K, Crystal 1 | – | 270.4 | –
305.45 K, Crystal 1, Closed cell (Static) method | – | – | 0.01128 kPa
308.15 K, Crystal 1, Closed cell (Static) method | – | – | 0.01501 kPa and 0.015 kPa
308.15 K, Metastable liquid | – | – | 0.01672 kPa and 0.0167 kPa
308.18 K, Metastable liquid | – | – | 0.01676 kPa
308.19 K, Metastable liquid | – | – | 0.01678 kPa
308.2 K, Metastable liquid | – | – | 0.01678 kPa
310 K, Crystal 1 | – | 274.6 | –
310.04 K, Crystal 1, Closed cell (Static) method | – | – | 0.01833 kPa
310.07 K, Crystal 1, Closed cell (Static) method | – | – | 0.0184 kPa and 0.01842 kPa
313.38 K, Metastable liquid | – | – | 0.02657 kPa and 0.02658 kPa and 0.02656 kPa
314.67 K, Crystal 1, Closed cell (Static) method | – | – | 0.02949 kPa and 0.02946 kPa
315 K, Crystal 1 | – | 278.9 | –
315.6 K, Crystal 1 | – | 279.4 | –
315.6 K, Liquid | – | 322.1 | –
318.43 K, Liquid | – | – | 0.0408 kPa
318.46 K, Liquid | – | – | 0.04088 kPa
318.47 K, Liquid | – | – | 0.04094 kPa
320 K, Liquid | – | 327.3 | –
323.48 K, Liquid | – | – | 0.06146 kPa
323.5 K, Liquid | – | – | 0.06158 kPa
323.51 K, Liquid | – | – | 0.06164 kPa
325 K, Liquid | – | 333.3 | –
328.56 K, Liquid | – | – | 0.09137 kPa and 0.09138 kPa
330 K, Liquid | – | 339.4 | –
332.75 K, Liquid | – | – | 0.1252 kPa
335 K, Liquid | – | 345.4 | –
337.81 K, Liquid | – | – | 0.1804 kPa
337.82 K, Liquid | – | – | 0.1805 kPa
340 K, Liquid | – | 351.5 | –
342.89 K, Liquid | – | – | 0.2562 kPa and 0.2563 kPa
345 K, Liquid | – | 357.5 | –
347.88 K, Liquid | – | – | 0.3573 kPa
350 K, Liquid | – | 363.5 | –
352.88 K, Liquid | – | – | 0.4914 kPa
352.89 K, Liquid | – | – | 0.4914 kPa
355 K, Liquid | – | 369.6 | –
357.86 K, Liquid | – | – | 0.6662 kPa
357.87 K, Liquid | – | – | 0.6664 kPa
360 K, Liquid | – | 375.6 | –
362.82 K, Liquid | – | – | 0.8914 kPa
362.83 K, Liquid | – | – | 0.8915 kPa
365 K, Liquid | – | 381.5 | –
370 K, Liquid | – | 387.5 | –
Metastable crystal, DSC | 310 | – | –

Conditions | Triple point temperature [K]
Crystal 1, Adiabatic calorimetry | 315.6
Crystal 1, DSC | 315.4
